Measurements as given in ChEMBL document CHEMBL3860093, “Cyclic peptide-based potent and selective SIRT1/2 dual inhibitors harboring Nε-thioacetyl-lysine” (Bioorg Med Chem Lett, 2016).

Assays:
[1] = target: T1, NAD-dependent protein deacetylase sirtuin-1 (Homo sapiens, UniProt Q96EB6); test: Inhibition of recombinant human GST or His6-tagged SIRT1 using H2N-HK-[Nepsilon-acetyl-lysine]-LM-COOH as substrate incubated for 10 mins in presence of beta-NAD+ by HPLC based assay
T1 sequence (Q96EB6 whole entry): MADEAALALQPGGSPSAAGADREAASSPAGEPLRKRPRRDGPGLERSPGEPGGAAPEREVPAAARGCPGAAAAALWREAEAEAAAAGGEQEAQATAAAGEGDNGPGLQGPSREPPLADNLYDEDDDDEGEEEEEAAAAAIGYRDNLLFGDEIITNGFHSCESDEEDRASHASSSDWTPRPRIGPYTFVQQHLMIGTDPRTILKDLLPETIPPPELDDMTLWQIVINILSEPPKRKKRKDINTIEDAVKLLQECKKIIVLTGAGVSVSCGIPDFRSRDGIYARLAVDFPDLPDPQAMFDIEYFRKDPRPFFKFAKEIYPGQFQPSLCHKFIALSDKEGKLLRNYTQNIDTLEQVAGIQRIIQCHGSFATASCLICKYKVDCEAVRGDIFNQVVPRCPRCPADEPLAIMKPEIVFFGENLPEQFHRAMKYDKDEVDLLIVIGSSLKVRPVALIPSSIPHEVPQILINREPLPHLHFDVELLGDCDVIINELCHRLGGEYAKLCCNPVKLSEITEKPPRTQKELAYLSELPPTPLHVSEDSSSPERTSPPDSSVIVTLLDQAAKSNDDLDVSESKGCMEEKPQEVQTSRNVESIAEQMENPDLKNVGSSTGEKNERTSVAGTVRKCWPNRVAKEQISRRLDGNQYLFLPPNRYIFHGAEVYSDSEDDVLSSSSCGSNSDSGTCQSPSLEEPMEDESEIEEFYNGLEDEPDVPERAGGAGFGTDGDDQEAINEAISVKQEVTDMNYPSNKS

[2] = target: T2, NAD-dependent protein deacetylase sirtuin-2 (Homo sapiens, UniProt Q8IXJ6); test: Inhibition of recombinant human His6-tagged SIRT2 using H2N-HK-[Nepsilon-acetyl-lysine]-LM-COOH as substrate incubated for 12 mins in presence of beta-NAD+ by HPLC based assay
T2 sequence (Q8IXJ6 whole entry): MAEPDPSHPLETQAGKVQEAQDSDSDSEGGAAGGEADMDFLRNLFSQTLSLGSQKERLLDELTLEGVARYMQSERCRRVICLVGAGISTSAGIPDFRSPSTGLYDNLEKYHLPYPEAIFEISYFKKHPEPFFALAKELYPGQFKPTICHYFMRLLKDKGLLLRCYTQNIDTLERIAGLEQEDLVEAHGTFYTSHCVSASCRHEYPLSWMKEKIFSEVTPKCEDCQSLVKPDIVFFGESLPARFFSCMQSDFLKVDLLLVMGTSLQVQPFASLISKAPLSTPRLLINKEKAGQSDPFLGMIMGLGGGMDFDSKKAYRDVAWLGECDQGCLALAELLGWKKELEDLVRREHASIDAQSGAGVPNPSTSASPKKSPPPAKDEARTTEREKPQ

[3] = target: T3, NAD-dependent protein deacetylase sirtuin-3, mitochondrial (Homo sapiens, UniProt Q9NTG7); test: Inhibition of recombinant human His6-tagged SIRT3 using H2N-HK-[Nepsilon-acetyl-lysine]-LM-COOH as substrate incubated for 10 mins in presence of beta-NAD+ by HPLC based assay
T3 sequence (Q9NTG7 whole entry): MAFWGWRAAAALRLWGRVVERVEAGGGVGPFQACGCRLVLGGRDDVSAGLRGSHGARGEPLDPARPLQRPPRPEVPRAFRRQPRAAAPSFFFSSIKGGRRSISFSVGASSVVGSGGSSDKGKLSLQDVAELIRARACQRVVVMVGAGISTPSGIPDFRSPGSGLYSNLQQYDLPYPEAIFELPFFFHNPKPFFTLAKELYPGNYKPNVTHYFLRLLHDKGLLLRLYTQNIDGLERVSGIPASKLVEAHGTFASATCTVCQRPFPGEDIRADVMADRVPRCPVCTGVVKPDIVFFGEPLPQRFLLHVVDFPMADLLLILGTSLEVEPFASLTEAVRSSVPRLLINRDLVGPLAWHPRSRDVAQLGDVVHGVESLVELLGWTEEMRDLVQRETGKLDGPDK

[4] = organism: Homo sapiens; test: Selectivity ratio of IC50 for recombinant human His6-tagged SIRT3 to IC50 for recombinant human GST or His6-tagged SIRT1
[5] = organism: Homo sapiens; test: Selectivity ratio of IC50 for recombinant human His6-tagged SIRT3 to IC50 for recombinant human His6-tagged SIRT2
[6] = Stability of compound assessed as Streptomyces griseus pronase-mediated compound hydrolysis up to 6 mins by HPLC analysis; type: ADME; settings: 0.1 h
[7] = target: NAD-dependent protein deacylase sirtuin-5, mitochondrial (Homo sapiens, UniProt Q9NXA8); test: Inhibition of recombinant human GST-tagged SIRT5 using CH3CONH-AR-[Nepsilon-succinyl-lysine]-ST-CONH2 as substrate incubated for 5 mins in presence of beta-NAD+ by HPLC based assay
NAD-dependent protein deacylase sirtuin-5, mitochondrial, sequence (Q9NXA8 whole entry): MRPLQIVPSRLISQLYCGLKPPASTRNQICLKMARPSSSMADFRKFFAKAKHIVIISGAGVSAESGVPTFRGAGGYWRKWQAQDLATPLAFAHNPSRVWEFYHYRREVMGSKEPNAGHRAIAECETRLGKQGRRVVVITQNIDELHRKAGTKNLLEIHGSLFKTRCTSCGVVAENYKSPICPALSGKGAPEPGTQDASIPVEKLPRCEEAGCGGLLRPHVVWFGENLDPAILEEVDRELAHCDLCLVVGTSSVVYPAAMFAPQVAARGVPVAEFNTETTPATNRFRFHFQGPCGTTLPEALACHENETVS

[8] = target: NAD-dependent protein deacylase sirtuin-6 (Homo sapiens, UniProt Q8N6T7); test: Inhibition of recombinant human His6-tagged SIRT6 using H2N-EALPK-[Nepsilon-myristoyl-lysine]-TGGPQ-CONH2 as substrate incubated for 12 mins in presence of beta-NAD+ by HPLC based assay
NAD-dependent protein deacylase sirtuin-6, sequence (Q8N6T7 whole entry): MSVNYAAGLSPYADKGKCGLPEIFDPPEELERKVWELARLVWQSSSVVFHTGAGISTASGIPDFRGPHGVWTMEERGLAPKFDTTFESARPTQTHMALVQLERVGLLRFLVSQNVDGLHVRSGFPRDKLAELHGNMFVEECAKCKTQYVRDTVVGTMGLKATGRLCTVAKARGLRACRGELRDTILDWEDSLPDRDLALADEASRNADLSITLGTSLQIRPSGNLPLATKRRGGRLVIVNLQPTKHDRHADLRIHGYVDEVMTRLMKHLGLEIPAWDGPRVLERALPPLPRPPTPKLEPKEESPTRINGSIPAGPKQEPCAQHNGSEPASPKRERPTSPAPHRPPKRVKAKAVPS

[9] = Stability of compound assessed as Streptomyces griseus pronase-mediated compound hydrolysis up to 40 mins by HPLC analysis; type: ADME
[10] = Stability of compound assessed as Streptomyces griseus pronase-mediated compound hydrolysis up to 60 mins by HPLC analysis; type: ADME; settings: 1 h
[11] = target: T4, NAD-dependent protein deacetylase sirtuin-1 (Homo sapiens) (UniProt Q96EB6); test: Inhibition of SIRT1 in human HCT116 cells assessed as increase in p53 acetylation at lysine-382 residue after 8 hrs by Western blot assay; type: cell-based; settings: HCT-116
T4 sequence (whole entry): T1 sequence (Q96EB6 whole entry)

IC50 [1] [nM]	IC50 [2] [nM]	IC50 [3] [µM]	Ratio IC50 [4]	Ratio IC50 [5]	Stability [6]	IC50 [7] [mM]	IC50 [8] [mM]	Stability [9]	Stability [10]	inhibition [11]	Molecule
3840	3900	3.39	0.9	0.9							CC(=S)NCCCC[C@@H]1NC(=O)CNC(=O)CCCCCCC(=O)NCCCC[C@@H](C(N)=O)NC1=O
					Unstable						H-HKK(Ac)LM-OH
22000	24300	56.9	2.6	2.3							CC(=S)NCCCC[C@@H]1NC(=O)CNCCC(=O)NCCCC[C@@H](C(N)=O)NC1=O
710	1500	3.5	4.9	2.3							CC(=S)NCCCC[C@@H]1NC(=O)[C@H](Cc2ccc3ccccc3c2)NC(=O)CCCCCCC(=O)NC[C@@H](C(N)=O)NC1=O
500	890	3.82	7.6	4.3		> 0.2	> 1	Stable			CC(=S)NCCCC[C@@H]1NC(=O)[C@H](Cc2csc3ccccc23)NC(=O)CCCCCCC(=O)NCCCC[C@@H](C(N)=O)NC1=O
270	220	1.82							Stable	Dose-dependent effect	CCCC[C@@H]1NC(=O)CCCCCCC(=O)NCCC[C@@H](C(N)=O)NC(=O)[C@H](CCCCNC(C)=S)NC1=O
820	420	1.48	1.8	3.5							CCCC[C@@H]1NC(=O)CCCCCCC(=O)NCC[C@@H](C(N)=O)NC(=O)[C@H](CCCCNC(C)=S)NC1=O
220	240	0.47	2.1	2							CCCC[C@@H]1NC(=O)CCCCCCC(=O)NCCCC[C@@H](C(N)=O)NC(=O)[C@H](CCCCNC(C)=S)NC1=O
1100	2400					> 6	> 4		Stable		CC(=S)NCCCC[C@@H]1NC(=O)[C@H](Cc2ccc3ccccc3c2)NC(=O)CCCCCCC(=O)NCC[C@@H](C(N)=O)NC1=O
1210	4240	2.51	2.1	0.6							CC(=S)NCCCC[C@@H]1NC(=O)[C@H](Cc2csc3ccccc23)NC(=O)CCCCCCC(=O)NC[C@@H](C(N)=O)NC1=O
450	180	1.06	2.4	5.9							CCCC[C@@H]1NC(=O)CCCCCCC(=O)NC[C@@H](C(N)=O)NC(=O)[C@H](CCCCNC(C)=S)NC1=O
680	480	3.18	4.7	6.6		> 0.3	> 2				CC(=S)NCCCC[C@@H]1NC(=O)[C@H](Cc2csc3ccccc23)NC(=O)CCCCCCC(=O)NCCC[C@@H](C(N)=O)NC1=O
570	1400	1.94	3.4	1.4							CC(=S)NCCCC[C@@H]1NC(=O)[C@H](Cc2ccc3ccccc3c2)NC(=O)CCCCCCC(=O)NCCCC[C@@H](C(N)=O)NC1=O
37500	20300										CC(C(=O)Nc1cccc(/N=C/c2c(O)ccc3ccccc23)c1)c1ccccc1 (stereo unspecified) [SALERMIDE]
180	1200	3.2	17.8	2.7							CC(=S)NCCCC[C@@H]1NC(=O)[C@H](Cc2ccc3ccccc3c2)NC(=O)CCCCCCC(=O)NCCC[C@@H](C(N)=O)NC1=O
		25.7									CN(C)CCCCC(=O)Nc1ccc(NC(=S)NC(=O)c2ccc(C(C)(C)C)cc2)cc1
1270	1160	10	7.9	8.6		> 2	> 1				CC(=S)NCCCC[C@@H]1NC(=O)[C@H](Cc2csc3ccccc23)NC(=O)CCCCCCC(=O)NCC[C@@H](C(N)=O)NC1=O
